Measured values reported in ChEMBL document CHEMBL4619714, “Amino acid prodrugs of NVR3-778: Design, synthesis and anti-HBV activity” (Bioorg Med Chem Lett, 2020).
Converted amounts (≈) assume the structure as drawn.

How the values were obtained:
Hepatitis B virus [1] = assay: Antiviral activity against Hepatitis B virus infected in human HepG2.2.15 cells by solid phase radioimmunoassay; type: functional, organism-based; conditions: HepG2 2.2.15
[2] = Cytotoxicity against human HepG2.2.15 cells; type: cell-based, HepG2 2.2.15
[3] = Selectivity index, ratio of CC50 for human HepG2.2.15 cells to IC50 for Hepatitis B virus; type: toxicity; conditions: read-out: Ratio CC50/IC50
[4] = Solubility of compound at pH 2 by HPLC-UV analysis; type: physicochemical; conditions: buffer
[5] = Half life in ICR mouse at 50 mg/kg, po; type: ADME, organism-based; conditions: in vivo
[6] = Tmax in ICR mouse at 50 mg/kg, po; type: ADME, organism-based; conditions: in vivo
[7] = Cmax in ICR mouse at 50 mg/kg, po; type: ADME, organism-based; set-up: dose 50 mg/kg, route oral; conditions: in vivo
[8] = AUC (0 to t) in ICR mouse at 50 mg/kg, po; type: ADME, organism-based; conditions: in vivo
[9] = MRT in ICR mouse at 50 mg/kg, po; type: ADME, organism-based; conditions: in vivo
Hepatitis B virus [10] = assay: Antiviral activity against Hepatitis B virus infected in C57BL/6 mouse assessed as reduction in viral DNA at 0.93 mmol/kg, po administered bid and measured on day 2 by qRT-PCR analysis; type: functional
Hepatitis B virus [11] = assay: Antiviral activity against Hepatitis B virus infected in C57BL/6 mouse assessed as reduction in viral DNA at 0.93 mmol/kg, po administered bid and measured on day 4 by qRT-PCR analysis; type: functional
[12] = Toxicity in C57BL/6 mouse infected with Hepatitis B virus assessed as reduction in body weight at 0.93 mmol/kg, po administered bid and observed for 6 days; type: organism-based; conditions: in vivo, 144 h
[13] = Solubility of compound assessed as 4-fluoro-3-[(4-hydroxy-1-piperidyl)sulfonyl]-N-(3,4,5-trifluorophenyl)benzamide level at pH 2; type: physicochemical; conditions: buffer
[14] = Half life in ICR mouse assessed as 4-fluoro-3-[(4-hydroxy-1-piperidyl)sulfonyl]-N-(3,4,5-trifluorophenyl)benzamide level at 50 mg/kg, po; type: ADME, organism-based; conditions: in vivo
[15] = Tmax in ICR mouse assessed as 4-fluoro-3-[(4-hydroxy-1-piperidyl)sulfonyl]-N-(3,4,5-trifluorophenyl)benzamide level at 50 mg/kg, po; type: ADME, organism-based; conditions: in vivo
[16] = Cmax in ICR mouse assessed as 4-fluoro-3-[(4-hydroxy-1-piperidyl)sulfonyl]-N-(3,4,5-trifluorophenyl)benzamide level at 50 mg/kg, po; type: ADME, organism-based; set-up: dose 50 mg/kg, route oral; conditions: in vivo
[17] = AUC (0 to t) in ICR mouse assessed as 4-fluoro-3-[(4-hydroxy-1-piperidyl)sulfonyl]-N-(3,4,5-trifluorophenyl)benzamide level at 50 mg/kg, po; type: ADME, organism-based; conditions: in vivo
[18] = MRT in ICR mouse assessed as 4-fluoro-3-[(4-hydroxy-1-piperidyl)sulfonyl]-N-(3,4,5-trifluorophenyl)benzamide level at 50 mg/kg, po; type: ADME, organism-based; conditions: in vivo
Hepatitis B virus [19] = assay: Antiviral activity against Hepatitis B virus infected in orally dosed C57BL/6 mouse assessed as reduction in viral DNA administered bid for daily and measured upto 6 days by qRT-PCR analysis; type: functional, organism-based
[20] = Toxicity in C57BL/6 mouse infected with Hepatitis B virus assessed as reduction in body weight at 0.23 and 0.93 mmol/kg, po administered bid and observed for 6 days; type: organism-based; conditions: in vivo, 144 h
Hepatitis B virus [21] = assay: Antiviral activity against Hepatitis B virus infected in C57BL/6 mouse assessed as reduction in viral DNA at 0.1 mg/kg, po measured upto 6 days by qRT-PCR analysis; type: functional

## CCC(C)[C@H](N)C(=O)OC1CCN(S(=O)(=O)c2cc(C(=O)Nc3cc(F)c(F)c(F)c3)ccc2F)CC1 (some centres undefined)
Hepatitis B virus [1]
  IC50: 0.38 µM
[2]
  CC50: > 10 µM
[3]
  selectivity ratio: > 26.3

## N[C@@H](Cc1ccccc1)C(=O)OC1CCN(S(=O)(=O)c2cc(C(=O)Nc3cc(F)c(F)c(F)c3)ccc2F)CC1
Hepatitis B virus [1]
  IC50: 0.35 µM
[2]
  CC50: > 10 µM
[3]
  selectivity ratio: > 28.6

## CC(C)(C)[C@H](N)C(=O)OC1CCN(S(=O)(=O)c2cc(C(=O)Nc3cc(F)c(F)c(F)c3)ccc2F)CC1
Hepatitis B virus [1]
  IC50: 0.56 µM
[2]
  CC50: > 10 µM
[3]
  selectivity ratio: > 17.9

## O=C(Nc1cc(F)c(F)c(F)c1)c1ccc(F)c(S(=O)(=O)N2CCC(O)CC2)c1
Hepatitis B virus [1]
  IC50: 0.26 µM
[2]
  CC50: 4.81 µM
[3]
  selectivity ratio: 18.5
[4]
  solubility: 3 µg/mL (≈ 6.94 µM)
[5]
  half-life: 8.14 h
[6]
  Tmax: 1.08 h
[7]
  Cmax: 66100 ng/mL
[8]
  AUC(0-t): 456 µg·h/mL
[9]
  MRT: 10.7 h
Hepatitis B virus [10]
  Activity: 0.53 log10IU/ml
Hepatitis B virus [11]
  Activity: 0.6 log10IU/ml
[12]
  Activity: Non-Toxic

## NCC(=O)OC1CCN(S(=O)(=O)c2cc(C(=O)Nc3cc(F)c(F)c(F)c3)ccc2F)CC1
Hepatitis B virus [1]
  IC50: 1.4 µM
[2]
  CC50: > 10 µM
[3]
  selectivity ratio: > 7.1

## C[C@H](N)C(=O)OC1CCN(S(=O)(=O)c2cc(C(=O)Nc3cc(F)c(F)c(F)c3)ccc2F)CC1
Hepatitis B virus [1]
  IC50: 0.28 µM
[2]
  CC50: 4.81 µM
[3]
  selectivity ratio: 17.2

## CC(C)[C@H](N)C(=O)OC1CCN(S(=O)(=O)c2cc(C(=O)Nc3cc(F)c(F)c(F)c3)ccc2F)CC1
Hepatitis B virus [1]
  IC50: 0.34 µM
[2]
  CC50: > 10 µM
[3]
  selectivity ratio: > 29.4
[5]
  half-life: 1.23 h
[6]
  Tmax: 0.25 h
[7]
  Cmax: 11500 ng/mL
[8]
  AUC(0-t): 6.65 µg·h/mL
[9]
  MRT: 0.97 h
[13]
  solubility: 700 µg/mL (≈ 1320 µM)
[14]
  t1/2: 3.53 h
[15]
  Tmax: 0.5 h
[16]
  Cmax: 45170 ng/mL
[17]
  AUCt: 258.9 µg·h/mL
[18]
  MRT: 4.66 h
Hepatitis B virus [19]
  Activity: Dose-dependent effect
Hepatitis B virus [10]
  Activity: 0.75 log10IU/ml
Hepatitis B virus [11]
  Activity: 0.67 log10IU/ml
[20]
  Activity: Non-Toxic

## CC(C)C[C@H](N)C(=O)OC1CCN(S(=O)(=O)c2cc(C(=O)Nc3cc(F)c(F)c(F)c3)ccc2F)CC1
Hepatitis B virus [1]
  IC50: 0.28 µM
[2]
  CC50: 5.77 µM
[3]
  selectivity ratio: 20.6

## C=C1[C@H](CO)[C@@H](O)C[C@@H]1n1cnc2c(=O)[nH]c(N)nc21.O [ENTECAVIR]
Hepatitis B virus [21]
  Activity: 1.67 log10IU/ml
